According to patent US20210254272A1, “TEXTILES HAVING ANTIMICROBIAL PROPERTIES” (Livinguard AG, priority 2015, published 2021):

Assay: Leaching test: 100 g fabric soaked in 10 liters stagnant distilled water, 3 days (72 hours)
Type: physicochemical
Details: for Leaching of active ingredients: exhaust 80° C. 60 min, cured 180° C. 2 min, post wash
Experimental: (§1) The test procedure for leaching was as follows: 100 g (grams) of fabric as well as control fabrics were soaked in 10 liters of stagnant distilled water in a closed wide mouth jar. After 3 days (72 hours), the water samples were tested for leached substances as per standard analytical methods.
as §1, with “methods. A weight of 100 g fabric was chosen because in the preferred embodiment of the water filter as described further below, each filter comprises a strip of fabric with 210 g/m^2, 3 meters long and 0.16 meters wide, which corresponds to 100 g of fabric.” for “methods.”

## CCCC1COC(Cn2cncn2)(c2ccc(Cl)cc2Cl)O1 (centres unmarked) [Propiconazole, propiconazole]
0.2% each in mixture (o.w.f), exhaust 80° C., 60 min, curing 180° C., 2 min, unwashed
  Leaching of active ingredients (in ppm): 4 ppm
0.5% each in mixture (o.w.f), exhaust 80° C., 60 min, curing 180° C., 2 min, unwashed
  Leaching of active ingredients (in ppm): 6 ppm
1.0% each in mixture (o.w.f), exhaust 80° C., 60 min, curing 180° C., 2 min, unwashed
  Leaching of active ingredients (in ppm): 8 ppm
Exhaust + Wash + pad + Wash, exhaust 0.1% o.w.f. each in mixture, 1 gm/liter pad
  Leeching in ppm: 0.5 ppm
Exhaust + Wash + pad + Wash, exhaust 0.1% o.w.f. each in mixture, 5 gm/liter pad
  Leeching in ppm: 0.7 ppm
Exhaust + Wash + pad + Wash, exhaust 0.1% o.w.f. each in mixture, 10 gm/liter pad
  Leeching in ppm: 0.6 ppm
Exhaust + Wash + pad + Wash, exhaust 0.25% o.w.f. each in mixture, 1 gm/liter pad
  Leeching in ppm: 7 ppm
Exhaust + Wash + pad + Wash, exhaust 0.25% o.w.f. each in mixture, 5 gm/liter pad
  Leeching in ppm: 7 ppm
Exhaust + Wash + pad + Wash, exhaust 0.25% o.w.f. each in mixture, 10 gm/liter pad
  Leeching in ppm: 20 ppm
Exhaust + Wash + pad + Wash, exhaust 0.5 (% o.w.f) each in mixture, 1 gm/liter pad
  Leeching in ppm: 5 ppm
Exhaust + Wash + pad + Wash, exhaust 0.5 (% o.w.f) each in mixture, 5 gm/liter pad
  Leeching in ppm: 15 ppm
Exhaust + Wash + pad + Wash, exhaust 0.5 (% o.w.f) each in mixture, 10 gm/liter pad
  Leeching in ppm: 26 ppm
Exhaust + Wash + pad + Wash, exhaust 1.0% o.w.f. each in mixture, 1 gm/liter pad
  Leeching in ppm: 10 ppm
Exhaust + Wash + pad + Wash, exhaust 1.0% o.w.f. each in mixture, 5 gm/liter pad
  Leeching in ppm: 19 ppm
Exhaust + Wash + pad + Wash, exhaust 1.0% o.w.f. each in mixture, 10 gm/liter pad
  Leeching in ppm: 34 ppm
Exhaust + pad + Wash, exhaust 0.1% o.w.f. each in mixture, 1 gm/liter pad
  Leeching in ppm: 149 ppm
Exhaust + pad + Wash, exhaust 0.1% o.w.f. each in mixture, 5 gm/liter pad
  Leeching in ppm: 241 ppm
Exhaust + pad + Wash, exhaust 0.1% o.w.f. each in mixture, 10 gm/liter pad
  Leeching in ppm: 256 ppm
Exhaust + pad + Wash, exhaust 0.25% o.w.f. each in mixture, 1 gm/liter pad
  Leeching in ppm: 231 ppm
Exhaust + pad + Wash, exhaust 0.25% o.w.f. each in mixture, 5 gm/liter pad
  Leeching in ppm: 259 ppm
Exhaust + pad + Wash, exhaust 0.25% o.w.f. each in mixture, 10 gm/liter pad
  Leeching in ppm: 546 ppm
Exhaust + pad + Wash, exhaust 0.5 (% o.w.f) each in mixture, 1 gm/liter pad
  Leeching in ppm: 475 ppm
Exhaust + pad + Wash, exhaust 0.5 (% o.w.f) each in mixture, 5 gm/liter pad
  Leeching in ppm: 538 ppm
Exhaust + pad + Wash, exhaust 0.5 (% o.w.f) each in mixture, 10 gm/liter pad
  Leeching in ppm: 649 ppm
Exhaust + pad + Wash, exhaust 1.0% o.w.f. each in mixture, 1 gm/liter pad
  Leeching in ppm: 578 ppm
Exhaust + pad + Wash, exhaust 1.0% o.w.f. each in mixture, 5 gm/liter pad
  Leeching in ppm: 689 ppm
Exhaust + pad + Wash, exhaust 1.0% o.w.f. each in mixture, 10 gm/liter pad
  Leeching in ppm: 853 ppm
Exhaust + pad, exhaust 0.1% o.w.f. each in mixture, 1 gm/liter pad
  Leeching in ppm: 194 ppm
Exhaust + pad, exhaust 0.1% o.w.f. each in mixture, 5 gm/liter pad
  Leeching in ppm: 284 ppm
Exhaust + pad, exhaust 0.1% o.w.f. each in mixture, 10 gm/liter pad
  Leeching in ppm: 345 ppm
Exhaust + pad, exhaust 0.25% o.w.f. each in mixture, 1 gm/liter pad
  Leeching in ppm: 317 ppm
Exhaust + pad, exhaust 0.25% o.w.f. each in mixture, 5 gm/liter pad
  Leeching in ppm: 346 ppm
Exhaust + pad, exhaust 0.25% o.w.f. each in mixture, 10 gm/liter pad
  Leeching in ppm: 354 ppm
Exhaust + pad, exhaust 0.5 (% o.w.f) each in mixture, 1 gm/liter pad
  Leeching in ppm: 365 ppm
Exhaust + pad, exhaust 0.5 (% o.w.f) each in mixture, 5 gm/liter pad
  Leeching in ppm: 456 ppm
Exhaust + pad, exhaust 0.5 (% o.w.f) each in mixture, 10 gm/liter pad
  Leeching in ppm: 867 ppm
Exhaust + pad, exhaust 1.0% o.w.f. each in mixture, 1 gm/liter pad
  Leeching in ppm: 596 ppm
Exhaust + pad, exhaust 1.0% o.w.f. each in mixture, 5 gm/liter pad
  Leeching in ppm: 810 ppm
Exhaust + pad, exhaust 1.0% o.w.f. each in mixture, 10 gm/liter pad
  Leeching in ppm: 1456 ppm
Exhaust +Wash + pad, exhaust 0.1% o.w.f. each in mixture, 1 gm/liter pad
  Leeching in ppm: 89 ppm
Exhaust +Wash + pad, exhaust 0.1% o.w.f. each in mixture, 5 gm/liter pad
  Leeching in ppm: 154 ppm
Exhaust +Wash + pad, exhaust 0.1% o.w.f. each in mixture, 10 gm/liter pad
  Leeching in ppm: 232 ppm
Exhaust +Wash + pad, exhaust 0.25% o.w.f. each in mixture, 1 gm/liter pad
  Leeching in ppm: 184 ppm
Exhaust +Wash + pad, exhaust 0.25% o.w.f. each in mixture, 5 gm/liter pad
  Leeching in ppm: 215 ppm
Exhaust +Wash + pad, exhaust 0.25% o.w.f. each in mixture, 10 gm/liter pad
  Leeching in ppm: 321 ppm
Exhaust +Wash + pad, exhaust 0.5 (% o.w.f) each in mixture, 1 gm/liter pad
  Leeching in ppm: 369 ppm
Exhaust +Wash + pad, exhaust 0.5 (% o.w.f) each in mixture, 5 gm/liter pad
  Leeching in ppm: 413 ppm
Exhaust +Wash + pad, exhaust 0.5 (% o.w.f) each in mixture, 10 gm/liter pad
  Leeching in ppm: 578 ppm
Exhaust +Wash + pad, exhaust 1.0% o.w.f. each in mixture, 1 gm/liter pad
  Leeching in ppm: 469 ppm
Exhaust +Wash + pad, exhaust 1.0% o.w.f. each in mixture, 5 gm/liter pad
  Leeching in ppm: 574 ppm
Exhaust +Wash + pad, exhaust 1.0% o.w.f. each in mixture, 10 gm/liter pad
  Leeching in ppm: 657 ppm
Exhaust 60° C., solution dosage 1% o.w.f, process time 60 min
  Leaching of active ingredients (in ppm): 24 ppm
Exhaust 60° C., solution dosage 1% o.w.f, process time 90 min
  Leaching of active ingredients (in ppm): 12 ppm
Exhaust 60° C., solution dosage 1% o.w.f, process time 120 min
  Leaching of active ingredients (in ppm): 13 ppm
Exhaust 60° C., solution dosage 1% o.w.f, process time 180 min
  Leaching of active ingredients (in ppm): 13 ppm
Exhaust 60° C., solution dosage 1% o.w.f, process time 240 min
  Leaching of active ingredients (in ppm): 15 ppm
Mixture 0.2% o.w.f. each
  Leaching of active ingredients: 0.3 ppm
Mixture 0.5% o.w.f. each
  Leaching of active ingredients: 0.3 ppm
Mixture 1% o.w.f. each
  Leaching of active ingredients: 0.9 ppm
Exhaust 80° C., 1% o.w.f, 60 min, curing 170° C., curing dwell time 0.5 min
  Leaching of active ingredients (in ppm): 28 ppm
Exhaust 80° C., 1% o.w.f, 60 min, curing 170° C., curing dwell time 1.0 min
  Leaching of active ingredients (in ppm): 24 ppm
Exhaust 80° C., 1% o.w.f, 60 min, curing 170° C., curing dwell time 1.5 min
  Leaching of active ingredients (in ppm): 21 ppm
Exhaust 80° C., 1% o.w.f, 60 min, curing 170° C., curing dwell time 2.0 min
  Leaching of active ingredients (in ppm): 15 ppm
Exhaust 80° C., 1% o.w.f, 60 min, curing 170° C., curing dwell time 2.5 min
  Leaching of active ingredients (in ppm): 17 ppm
Exhaust 80° C., 1% o.w.f, 60 min, curing 170° C., curing dwell time 3.0 min
  Leaching of active ingredients (in ppm): 17 ppm
Exhaust 80° C., 1% o.w.f, 60 min, curing 180° C., curing dwell time 0.5 min
  Leaching of active ingredients (in ppm): 24 ppm
Exhaust 80° C., 1% o.w.f, 60 min, curing 180° C., curing dwell time 1.0 min
  Leaching of active ingredients (in ppm): 12 ppm
Exhaust 80° C., 1% o.w.f, 60 min, curing 180° C., curing dwell time 1.5 min
  Leaching of active ingredients (in ppm): 13 ppm
Exhaust 80° C., 1% o.w.f, 60 min, curing 180° C., curing dwell time 2.0 min
  Leaching of active ingredients (in ppm): 3 ppm
Exhaust 80° C., 1% o.w.f, 60 min, curing 180° C., curing dwell time 2.5 min
  Leaching of active ingredients (in ppm): 13 ppm
Exhaust 80° C., 1% o.w.f, 60 min, curing 180° C., curing dwell time 3.0 min
  Leaching of active ingredients (in ppm): 13 ppm
Exhaust 80° C., 1% o.w.f, 60 min, curing dwell time at 190° C. (title): 0.5 min
  Leaching of active ingredients (in ppm): 23 ppm
Exhaust 80° C., 1% o.w.f, 60 min, curing dwell time at 190° C. (title): 1.0 min
  Leaching of active ingredients (in ppm): 12 ppm
Exhaust 80° C., 1% o.w.f, 60 min, curing dwell time at 190° C. (title): 1.5 min
  Leaching of active ingredients (in ppm): 12 ppm
Exhaust 80° C., 1% o.w.f, 60 min, curing dwell time at 190° C. (title): 2.0 min
  Leaching of active ingredients (in ppm): 10 ppm
Exhaust 80° C., 1% o.w.f, 60 min, curing dwell time at 190° C. (title): 2.5 min
  Leaching of active ingredients (in ppm): 27 ppm
Exhaust 80° C., 1% o.w.f, 60 min, curing dwell time at 190° C. (title): 3.0 min
  Leaching of active ingredients (in ppm): 34 ppm
